PMC10287695, “Non-covalent inhibitors of thioredoxin glutathione reductase with schistosomicidal activity in vivo” (Nature Communications, 2023)
“And” between values parts separate entries of the source, which are not always exact repeats. Equal entries are not always repeated. Where two headings read alike, the source gives them in different places.

How the values were obtained:
[1] = human, in vivo; cited from earlier work
S. mansoni NTS = test: Phenotypic assessment of PZQ activity on NTS; format: cell-based; details: for % Effect, single replicates I, II, III / % Effect / NTS phenotypic score, Mean / IC50: 24 hour exposure; for % Effect: from mean score, 100 - Average (Test) x 100 / Average (Control); for NTS phenotypic score, Mean: score 3 (motile) to 0 (dead); for IC50: NTS phenotypic scoring
Protocol: About 200 NTS incubated at 37 °C in a 5% CO2 incubator overnight were exposed to different concentrations of PZQ (1, 5, 10, 20, 30, 40 and 50 µM) and control without treatment for 24 h in triplicate. Worm images were acquired using Keyence BZ-X800 microscope and PZQ activity evaluated phenotypically. NTS viability was assessed by scoring worms based on morphological changes and motility. Viability scores of 3 = motile, no changes to morphology and transparency, 2 = reduced motility and/or some damage to tegument as well as reduced transparency and increased granularity, 1 = severe reduction of motility and/or damage to tegument with high opacity and high granularity, and 0 = dead.

juvenile worms in mice = details: cited from earlier work

O=C(C1CCCCC1)N1CC(=O)N2CCc3ccccc3C2C1 (stereo not shown) [PZQ, praziquantel]
half-life [1]: 1.6 h
% Effect, single replicates I, II, III (S. mansoni NTS; 10 µM): 9.401% and 12.151% and 16.3217%
% Effect (S. mansoni NTS; 10 µM): 12.6338%
NTS phenotypic score, Mean (S. mansoni NTS; 10 µM, mean of 3 replicates): 2.613
% Effect, single replicates I, II, III (S. mansoni NTS; 20 µM): 15.8245% and 13.8003% and 19.4239%
% Effect (S. mansoni NTS; 20 µM): 16.3511%
NTS phenotypic score, Mean (S. mansoni NTS; 20 µM, mean of 3 replicates): 2.502
% Effect, single replicates I, II, III (S. mansoni NTS; 30 µM): 25.0655% and 24.6184% and 29.7619%
% Effect (S. mansoni NTS; 30 µM): 26.486%
NTS phenotypic score, Mean (S. mansoni NTS; 30 µM, mean of 3 replicates): 2.199
% Effect, single replicates I, II, III (S. mansoni NTS; 40 µM): 41.1572% and 48.5123% and 41.922%
% Effect (S. mansoni NTS; 40 µM): 43.8717%
NTS phenotypic score, Mean (S. mansoni NTS; 40 µM, mean of 3 replicates): 1.679
% Effect, single replicates I, II, III (S. mansoni NTS; 50 µM): 60.2247% and 58.8296% and 61.8051%
% Effect (S. mansoni NTS; 50 µM): 60.2866%
NTS phenotypic score, Mean (S. mansoni NTS; 50 µM, mean of 3 replicates): 1.188
LD50 for NTS, phenotypic analysis (S. mansoni NTS; 24 h exposure): 42.9 ± 0.83 µM
IC50 (S. mansoni NTS; FORECAST interpolation, read-out: IC50, single replicates I, II, III): 42.6 µM and 42.3 µM
IC50 (S. mansoni NTS; Schistosoma mansoni, 24 h, FORECAST interpolation, read-out: IC50, single replicates I, II, III): 43.9 µM
IC50 (S. mansoni NTS; Schistosoma mansoni, 24 h, mean of 3 replicates, read-out: IC50, Mean): 42.9 µM
reduction in worm burden (juvenile worms in mice; mice, 500 mg/kg, 21 d.p.i.): 0%
reduction in worm burden (juvenile worms in mice; mice, 500 mg/kg, 28 d.p.i.): 0%
reduction in worm burden (juvenile worms in mice; mice, 1,000 mg/kg, 21 d.p.i.): 50%
reduction in worm burden (juvenile worms in mice; mice, 1,000 mg/kg, 28 d.p.i.): 17%
ED50 (juvenile worms in mice; mice, doses titrated 28 d.p.i.): 2,456 mg/kg
